From patent US20230192683A1, “FUSED RING COMPOUNDS, PREPARATION METHOD THEREFOR, PHARMACEUTICAL COMPOSITIONS AND USE THEREOF” (priority 2020, published 2023)
Marks after values point to notes of the source that are not given here.

Legend:
[1] = test system: rat CFA pain model; test: multi-dose oral pharmacodynamic study in rat CFA pain model (Von Frey PWT); format: in vivo
Experimental: The efficacy of Compound 1a and Compound 14 in the rat CFA pain model was evaluated using a mechanical allodynia method.
SD rats, 72 males, divided into 9 groups, were purchased from Beijing Vital River Laboratory Animal Technology Co., Ltd.
The experimental animals were adaptively reared for 3 to 7 days, and 8 of them were selected as a normal control group, and the other animals were injected with 50 µL of CFA in the center of the left hind paw for modeling. 24 hours after injection, the animals were tested for paw withdrawal threshold (PWT) basal values, and were divided into groups according to the basal values, which were solvent control group, indomethacin group, Compound 1a, 10 mpk group, Compound 1a, 30 mpk group, Compound 1a, 100 mpk group, Compound 14, 3 mpk group, Compound 14, 10 mpk group, and Compound 14, 30 mpk group, with 8 animals in each group. Subsequently, the animals were weighed and administered orally according to Table 6. All the animals were tested for paw withdrawal thresholds (PWT) using Von Frey 1, 2, and 4 hours after administration to further evaluate the efficacy of the compounds of the present invention.

[2] = molecular target: T1, human SSTR4 (Homo sapiens, UniProt P31391); test: radioligand binding assay, [125I]Somatostatin-14, CHO-K1 membranes
T1 construct: expressed in transfected cells
Experimental: (§1) Cell membranes were then filtered and washed, and protein-bound radioactivity was measured with a suitable instrument. The Ki values of corresponding targets were calculated using a Cheng-Prusoff formula.

[3] = molecular target: T2, human SSTR5 (Homo sapiens, UniProt P35346); test: biochemical; conditions: 25° C., 2 hours, Cheng-Prusoff; read-out: Binding Ki (nM) SSTR5
T2 construct: expressed in transfected cells; host or cells: CHO-K1 (membrane homogenates)
Experimental: as §1

[4] = molecular target: T3, human SSTR3 (Homo sapiens, UniProt P32745); test: biochemical; conditions: 25° C., 2 hours, Cheng-Prusoff; read-out: Binding Ki (nM) SSTR3
T3 construct: expressed in transfected cells; host or cells: CHO-K1 (membrane homogenates)
Experimental: as §1

[5] = molecular target: T4, human SSTR1 (Homo sapiens, UniProt P30872); test: biochemical; conditions: 25° C., 2 hours, Cheng-Prusoff; read-out: Binding Ki (nM) SSTR1
T4 construct: expressed in transfected cells; host or cells: CHO-K1 (membrane homogenates)
Experimental: as §1

[6] = molecular target: T5, human SSTR2 (Homo sapiens, UniProt P30874); test: biochemical; conditions: 25° C., 2 hours, Cheng-Prusoff; read-out: Binding Ki (nM) SSTR2
T5 construct: expressed in transfected cells; host or cells: CHO-K1 (membrane homogenates)
Experimental: as §1

[7] = test system: rat CFA pain model; test: single-dose pharmacodynamic study in rat CFA pain model (Von Frey PWT); format: in vivo; conditions: for Mechanical allodynia test (PWT (g), mean) Baseline: 10 mg/kg I.P. group, baseline 24 h after CFA, before administration; for Mechanical allodynia test (PWT (g), mean) 1 hour: 1 hour after single administration; for Mechanical allodynia test (PWT (g), mean) 3 hours: 3 hours after single administration; for inhibition of CFA-induced mechanical allodynia (in words): single administration, FIG. 1
Experimental: Each male SD rat (7-8 weeks old) was injected with 50 microliters of CFA in the center of the left hind paw. A PWT basal value test was conducted 24 hours after modeling, and the drugs were administered after randomization.
There were 8 animals in each group, and the animals were weighed and administered according to Table 4.
For all groups of animals, paw withdrawal thresholds (PWTs) of the animals were tested using Von Frey after 1 h and 3 h of single administration.

[8] = pharmacokinetic evaluation in rats after oral and intravenous administration; format: in vivo; conditions: Sprague-Dawley, rat, plasma, male SD rats, oral 10.0 mg/kg, intravenous 1.0 mg/kg, route and unit inferred
Experimental: Using rats as test animals, an LC/MS/MS method was used to determine the drug concentrations in plasma at different times after oral and intravenous administration of Compound 1a and Compound 14 in the rats. The pharmacokinetic behavior of the compounds of the present invention in rats was studied, and pharmacokinetic characteristics thereof were evaluated.
For each compound, 6 healthy adult SD (Sprague-Dawley) rats, male, were divided into oral and intravenous administration groups, 3 rats in each group, purchased from Shanghai SIPPR/BK Laboratory Animal Co., Ltd., animal production license number: SCXK (Shanghai) 2008-0016.
A specific amount of the drug was weighed and dissolved in 5% dimethylacetamide (DMA) + 5% polyethylene glycol-15 hydroxystearate (solutol) + 90% saline solution to prepare a 0.2 mg/mL solution.
The SD rats were fasted overnight and were administered orally and intravenously. The oral dose was 10.0 mg/kg, and the intravenous dose was 1.0 mg/kg.
Compound 1a and Compound 14 were administered orally and intravenously to the rats. At 0.083, 0.25, 0.5, 1, 2, 4, 8, and 24 hours after administration, 0.2 mL of blood was collected from the submandibular vein or other suitable blood vessels, placed in K2-EDTA tubes, and then stored on ice. Within one hour, the plasma was separated by centrifugation at 6,800 g for 6 minutes at 2-8° C., and stored at -80° C. for LC/MS/MS analysis. The rats were fed 4 hours after administration.

T1 sequence (P31391 whole entry): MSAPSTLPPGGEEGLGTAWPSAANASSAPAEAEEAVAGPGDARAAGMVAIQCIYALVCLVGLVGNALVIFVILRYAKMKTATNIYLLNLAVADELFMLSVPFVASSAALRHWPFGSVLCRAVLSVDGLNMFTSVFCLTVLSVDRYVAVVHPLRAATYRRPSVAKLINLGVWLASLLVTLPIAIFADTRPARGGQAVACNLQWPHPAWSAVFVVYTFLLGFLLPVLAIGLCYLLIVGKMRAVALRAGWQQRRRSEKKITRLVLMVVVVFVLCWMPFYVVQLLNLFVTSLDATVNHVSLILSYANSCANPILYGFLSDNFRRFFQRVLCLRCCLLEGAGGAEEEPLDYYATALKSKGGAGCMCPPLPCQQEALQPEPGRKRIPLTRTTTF
T5 sequence (P30874 whole entry): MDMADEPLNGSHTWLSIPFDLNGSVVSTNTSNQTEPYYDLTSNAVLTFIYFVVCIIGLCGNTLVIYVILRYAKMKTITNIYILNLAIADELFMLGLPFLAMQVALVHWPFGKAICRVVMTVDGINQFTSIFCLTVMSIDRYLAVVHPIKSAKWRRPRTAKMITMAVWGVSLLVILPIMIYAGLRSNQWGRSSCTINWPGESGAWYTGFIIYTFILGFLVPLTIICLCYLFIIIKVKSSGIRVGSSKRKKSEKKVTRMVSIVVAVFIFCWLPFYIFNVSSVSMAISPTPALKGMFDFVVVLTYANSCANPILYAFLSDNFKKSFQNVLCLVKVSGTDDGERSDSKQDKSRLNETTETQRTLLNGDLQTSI
T3 sequence (P32745 whole entry): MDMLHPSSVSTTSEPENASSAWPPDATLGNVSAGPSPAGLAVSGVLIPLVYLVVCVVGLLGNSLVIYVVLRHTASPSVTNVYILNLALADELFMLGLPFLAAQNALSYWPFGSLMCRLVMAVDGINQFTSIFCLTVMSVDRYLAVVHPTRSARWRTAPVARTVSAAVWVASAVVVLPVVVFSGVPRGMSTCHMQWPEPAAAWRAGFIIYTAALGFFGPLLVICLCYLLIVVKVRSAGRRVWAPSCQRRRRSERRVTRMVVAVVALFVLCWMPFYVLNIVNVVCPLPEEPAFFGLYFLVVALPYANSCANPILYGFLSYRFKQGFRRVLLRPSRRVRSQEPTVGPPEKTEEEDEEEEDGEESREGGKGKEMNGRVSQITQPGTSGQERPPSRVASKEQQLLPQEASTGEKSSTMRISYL
T2 sequence (P35346 whole entry): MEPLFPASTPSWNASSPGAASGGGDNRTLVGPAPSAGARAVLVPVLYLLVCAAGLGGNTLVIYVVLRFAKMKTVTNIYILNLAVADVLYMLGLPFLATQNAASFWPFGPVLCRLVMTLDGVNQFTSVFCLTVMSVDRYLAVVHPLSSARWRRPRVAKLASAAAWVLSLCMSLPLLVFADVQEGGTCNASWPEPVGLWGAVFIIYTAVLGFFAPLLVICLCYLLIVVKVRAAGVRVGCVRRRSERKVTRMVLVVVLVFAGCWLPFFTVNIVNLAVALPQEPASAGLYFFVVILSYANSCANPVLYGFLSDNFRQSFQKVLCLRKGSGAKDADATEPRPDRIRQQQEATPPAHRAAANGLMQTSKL
T4 sequence (P30872 whole entry): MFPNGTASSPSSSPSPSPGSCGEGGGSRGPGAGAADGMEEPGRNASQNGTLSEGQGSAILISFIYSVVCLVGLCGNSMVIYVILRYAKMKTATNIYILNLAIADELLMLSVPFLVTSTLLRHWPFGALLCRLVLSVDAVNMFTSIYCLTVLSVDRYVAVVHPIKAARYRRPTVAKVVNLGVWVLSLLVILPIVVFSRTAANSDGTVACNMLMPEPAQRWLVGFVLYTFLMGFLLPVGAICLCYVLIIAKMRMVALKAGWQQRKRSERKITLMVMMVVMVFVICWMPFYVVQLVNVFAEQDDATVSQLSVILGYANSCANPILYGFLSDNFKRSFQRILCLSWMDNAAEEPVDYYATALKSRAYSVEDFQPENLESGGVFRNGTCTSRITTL

CSc1cccn2c(C(C)(C)NC(=O)[C@H]3[C@@H]4CNC[C@@H]43)ncc12 [Compound 1a, (1R,5S,6R)-N-(2-(8-(Methylthio)Imidazo[1,5-a]Pyridin-3-yl)Prop-2-yl)-3-Azabicyclo[3.1.0]Hexane-6-Carboxamide]
Paw withdrawal threshold (PWT(g)) (average) 0 hours ([1]; 10 mg/kg oral group): 3.016 g | Paw withdrawal threshold (PWT(g)) (average) 1 hour ([1]; 10 mg/kg oral): 4.020 g | Paw withdrawal threshold (PWT(g)) (average) 2 hours ([1]; 10 mg/kg oral): 6.722 * g | Paw withdrawal threshold (PWT(g)) (average) 4 hours ([1]; 10 mg/kg oral): 8.438 **** g | Paw withdrawal threshold (PWT(g)) (average) 0 hours ([1]; 30 mg/kg oral group): 3.118 g | Paw withdrawal threshold (PWT(g)) (average) 1 hour ([1]; 30 mg/kg oral): 4.173 g | Paw withdrawal threshold (PWT(g)) (average) 2 hours ([1]; 30 mg/kg oral): 7.637 ** g | Paw withdrawal threshold (PWT(g)) (average) 4 hours ([1]; 30 mg/kg oral): 10.958 **** ### g | Paw withdrawal threshold (PWT(g)) (average) 0 hours ([1]; 100 mg/kg oral group): 3.118 g | Paw withdrawal threshold (PWT(g)) (average) 1 hour ([1]; 100 mg/kg oral): 3.855 g | Paw withdrawal threshold (PWT(g)) (average) 2 hours ([1]; 100 mg/kg oral): 9.549 **** g | Paw withdrawal threshold (PWT(g)) (average) 4 hours ([1]; 100 mg/kg oral): 9.687 **** # g | efficacy compared with positive control compound indomethacin (in words) ([1]; 30 mpk and 100 mpk groups, oral, 4 hours after administration): significantly better than that of the positive control compound indomethacin | inhibition of CFA-induced mechanical hyperalgesia (in words) ([1]; oral 10, 30, 100 mg/kg, 2 and 4 hours after administration): dose-dependently inhibit | onset dose ([1]; oral, inhibition of CFA-induced mechanical hyperalgesia): 10 mg/kg | Ki [2]: 5.52 nM | SSTR4 selectivity (in words) ([2]; binding selectivity to SSTRs 1-5): the best | SSTR4 /SSTR 1 ([2]; ratio of binding Ki values, selectivity): > 1500 | Ki [3]: > 5650 nM | Ki [4]: > 3420 nM | Ki [5]: > 8280 nM | Ki [6]: > 5310 nM | Mechanical allodynia test (PWT (g), mean) Baseline [7]: 3.554 g | Mechanical allodynia test (PWT (g), mean) 1 hour ([7]; 10 mg/kg I.P.): 6.484 * # g | efficacy compared with Control Compound A (in words) ([7]; 10 mg/kg I.P., 1 hour and 3 hours after administration): significantly better than that of Control Compound A | Mechanical allodynia test (PWT (g), mean) 3 hours ([7]; 10 mg/kg I.P.): 8.371 **** g | inhibition of CFA-induced mechanical allodynia (in words) ([7]; 10 mg/kg I.P.): inhibited CFA-induced mechanical allodynia | half-life [8]: 155 ± 64.2 min | Vd ([8]; read-out: Apparent volume of distribution): 5.12 ± 1.14 L/kg | clearance ([8]; read-out: Clearance rate): 53 ± 1.76 mL/min/kg

Cc1cccc2c(C(C)(C)NC(=O)[C@H]3[C@@H]4CNC[C@@H]43)nn(C)c12 [Control Compound A, reference compound]
Ki [3]: > 5650 nM | Ki [4]: > 3420 nM | Ki [5]: 1800 nM | Ki [6]: > 5310 nM | Mechanical allodynia test (PWT (g), mean) Baseline [7]: 3.765 g | Mechanical allodynia test (PWT (g), mean) 1 hour ([7]; 10 mg/kg I.P.): 3.813 g | Mechanical allodynia test (PWT (g), mean) 3 hours ([7]; 10 mg/kg I.P.): 6.237 * g | inhibition of CFA-induced mechanical allodynia (in words) ([7]; 10 mg/kg I.P.): inhibited CFA-induced mechanical allodynia
